# Measurements as given in patent publication US20250057840A1, “COMPOSITIONS AND METHODS FOR THE TREATMENT OF DISEASES WITH ISOCITRATE DEHYDROGENASE 1/2 MUTATIONS” (Fred Hutchison Cancer Center, priority 2023, published 2025).
# Where two headings read alike, the source gives them in different places.
# Legend:
# [1] = system: SNU-1079 cells (IDHm ICC); test: MTT proliferation / cell viability assay in SNU-1079; type: cell-based, human; conditions: Homo sapiens, read-out: Proliferation IC50
# Description: (§1) FIGS. 46A-46C are IC50 curves of IDH WT and mutant cells lines to S6K inhibitors. IDHm cells (SNU-1079 and RBE) and IDH WT cells (CCLP1 and HuCCT1) were treated with S6K inhibitors M2698 (FIG. 46A), PF-4708671 (FIG. 46B), and LY2584702 (FIG. 46C) for 7 days, and the cell viabilities were measured by MTT assay.
# [2] = system: RBE cells (IDHm ICC); test: MTT proliferation / cell viability assay in RBE; type: cell-based, human; conditions: Homo sapiens, read-out: Proliferation IC50
# Description: as §1
# [3] = system: HuCCT1 cells (IDH WT ICC); test: MTT proliferation / cell viability assay in HuCCT1; type: cell-based, human; conditions: Homo sapiens, HuCCT-1, read-out: Proliferation IC50
# Description: as §1
# [4] = system: ICC2 cells (IDH WT ICC); test: cells; conditions: Homo sapiens, read-out: Proliferation IC50
# Description: (§2) Proliferation Assays. Cells were plated in 96-well plates (1,000 cells/well) in culture medium. […] The cells were allowed to grow 5-7 days until control wells were confluent. Viable cells were quantified by adding MTT (M-6494; ThermoFisher Scientific) at a final concentration of 1 mg/mL for 3 hours at 37° C. 100 μL/well of DMSO was added to solubilize formazan crystals. Absorbance was read at 490 nm and normalized to DMSO control. For each experimental condition, duplicate wells were seeded, and data is represented as mean±SEM among three independent experiments.
# [5] = system: ICC5 cells (IDHm ICC); test: cells; conditions: Homo sapiens, read-out: Proliferation IC50
# Description: as §2
# [6] = system: CCLP1 cells (IDH WT ICC); test: Survival curves in CCLP1; type: cell-based; conditions: Homo sapiens, CC-LP-1, FIG. 1B
# [7] = system: mTOR, ERK, and STAT3 survival pathways (pS6K, pS6) in IDH WT ICC cell lines (HuCCT1, CCLP1, ICC2); test: Western blot of survival pathways in IDH WT ICC cell lines; type: cell-based, human; conditions: 6 hours of dasatinib treatment; three IDH WT ICC lines
# Description: Protein Isolation and Western Blot. Protein lysates were prepared by lysing cells directly in NP-40 buffer supplemented with a protease inhibitor cocktail (Complete EDTA-free, Roche Applied Science), […] and phosphatase inhibitors (Phosphatase Inhibitor Cocktail Sets I and II, Calbiochem). Cells suspended in lysis buffer were sonicated for 10 seconds of active sonication, followed by 20 seconds of rest for 3 cycles at 20% amplitude. The lysate was then centrifuged at 14,000 rpm for 10 mins at 4° C. and the supernatant was harvested. A BCA protein assay kit (Pierce) was used to measure and normalize protein concentration. 30 μg of the cell lysate was run on a 4-20% gradient polyacrylamide gel with SDS (Biorad) and electroblotted onto polyvinylidene difluoride membranes (PVDF) (Millipore). Membranes were blocked in TBS-T with 5% non-fat milk and 0.1% Tween and probed with primary antibodies (Table 1). Horseradish-peroxidase-conjugated secondary antibodies (Vector Biolaboratories) were used to detect membrane-bound proteins. Blots were developed using Clarity Max Western ECL Blotting Substrate (Biorad). Signaling experiments are representative of at least two independent experiments.
# [8] = system: SNU-1079 cells (IDHm ICC); test: cells; conditions: Homo sapiens, read-out: Survival IC50
# [9] = system: RBE cells (IDHm ICC); test: cells; conditions: Homo sapiens, read-out: Survival IC50
# [10] = system: ICC5 cells (IDHm ICC); test: cells; conditions: Homo sapiens, read-out: Survival IC50
# [11] = system: HuCCT1 cells (IDH WT ICC); test: cells; conditions: Homo sapiens, HuCCT-1, read-out: Survival IC50
# [12] = system: ICC2 cells (IDH WT ICC); test: cells; conditions: Homo sapiens, read-out: Survival IC50
compound,measurement,setting,value
Cc1nc(Nc2ncc(C(=O)Nc3c(C)cccc3Cl)s2)cc(N2CCN(CCO)CC2)n1 [dasatinib],IC50,[1],11.4 nM
same,IC50,[2],2.75 nM
same,IC50,[3],97.9 nM
same,IC50,[4],50.6 nM
same,IC50,[5],5.93 nM
same,IC50,[6],8040 nM
same,"effect on pathways evaluated (S6K/S6, ERK, STAT3)",[7],no effect
same,IC50,[8],22.6 nM
same,IC50,[9],4.1 nM
same,IC50,[10],41.7 nM
same,IC50,[11],977 nM
same,IC50,[12],162 nM
